Measurements from the CheMixHub viscosity set.

Experiment: xn = mol fraction of the nth substance listed
Conditions: 101 kPa

C1CC[NH2+]C1.CCCCCCCC(=O)[O-] + CCCCO
viscosity [mPa·s]
Conditions | x1 = 0.1198 | x1 = 0.2524 | x1 = 0.3299 | x1 = 0.4745 | x1 = 0.6187 | x1 = 0.7174 | x1 = 0.7912 | x1 = 0.9269
293.15 K | 5.39 | 10.82 | 13.21 | 22.51 | 34.14 | 44.35 | 51.93 | 65.75
298.15 K | 6.9 | 10.82 | – | 21.6 | 30.39 | 38.92 | 44.89 | 57.02
303.15 K | 4.75 | 8.64 | 11.15 | 17 | 24.8 | 31.23 | 35.44 | 45.4
308.15 K | 4.32 | 7.79 | 10.03 | 14.95 | 21.43 | 26.63 | 29.97 | 38.73
313.15 K | 3.6 | 6.6 | 8.5 | 13 | 17.8 | 21.5 | 25.3 | 31.7

CCC(C)O (configuration not stated) + CCCCO
Conditions | viscosity [mPa·s]
303.15 K, x2 = 0.8988 | 2.875

Cc1cccc(C)c1 + CCCCO
308.15 K
Conditions | viscosity [mPa·s]
x2 = 0.0525 | 0.471
x2 = 0.1036 | 0.54
x2 = 0.19 | 0.553
x2 = 0.307 | 0.583
x2 = 0.4171 | 0.631
x2 = 0.5209 | 0.733
x2 = 0.619 | 0.815
x2 = 0.7117 | 0.947
x2 = 0.7995 | 1.131
x2 = 0.8828 | 1.323
x2 = 0.9619 | 1.556

Nc1ccccc1Cl + CCCCO
viscosity [mPa·s]
Conditions | x1 = 0.0883 | x1 = 0.1789 | x1 = 0.2719 | x1 = 0.3675 | x1 = 0.4656 | x1 = 0.5666 | x1 = 0.6703 | x1 = 0.7771 | x1 = 0.8869
303.15 K | 2.47 | 2.66 | 2.83 | 3 | 3.16 | 3.31 | 3.44 | 3.57 | 3.69
308.15 K | 2.21 | 2.39 | 2.55 | 2.71 | 2.85 | 2.98 | 3.1 | 3.22 | 3.32
313.15 K | 1.98 | 2.16 | 2.31 | 2.45 | 2.58 | 2.7 | 2.82 | 2.92 | 3
318.15 K | 1.79 | 1.96 | 2.1 | 2.23 | 2.35 | 2.46 | 2.57 | 2.67 | 2.74
